Assay type in all cases: in vivo
For assay [1], the system named is cattle tick larvae (Rhipicephalus microplus), strain Parkhurst, resistant against synthetic pyrethroids. Kind of assay: Rhipicephalus (Boophilus) microplus in-vitro contact test, larval cattle tick. To be noted: 5 μg/cm^2 (=500 g/ha), after 48 hours, read-out: efficacy (larvae dead or moribund). In short, it runs like this: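 Efficacy, 100% meaning all larvae dead or moribund, was judged at 48 h from loss of negative geotactic climbing. Larvae of the Parkhurst strain, 20–50 per tube, were exposed at 27° C and 85% humidity to acetone-coated tube surfaces; 900 ppm corresponded to 5 μg/cm^2.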

Assay [2] deals with adult cat fleas (Ctenocephalides felis). The assay is described as follows: Ctenocephalides felis in-vitro contact test, adult cat flea. The following applies: 5 μg/cm^2 (=500 g/ha), after 48 hours, read-out: efficacy (fleas dead or moribund). The method in brief: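 Efficacy (%) counts fleas that are dead or moribund, meaning unable to escape heat (45-50 °C, ≤5 min) by climbing. Scoring was done 48 h after 5-10 adults were placed at room temperature in glass tubes. The tubes carried a dried acetone film of compound, 5 μg/cm^2 at 900 ppm.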

For assay [3], the system named is adult brown dog ticks (Rhipicephalus sanguineus). Kind of assay: Rhipicephalus sanguineus in-vitro contact test with adult brown dog ticks. The following applies: after 48 hours, read-out: efficacy (ticks dead or moribund). In short, it runs like this:
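Efficacy is the percentage of adult ticks dead or moribund, meaning immotile or uncoordinated and unable to escape 45-50° C. heat within 5 min. Read 48 h after 5-10 ticks were enclosed at room temperature in acetone-coated glass tubes. Dose 5 μg/cm^2, from a 900 ppm coating solution.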

Assay [4] concerns larvae of the banded cucumber beetle (Diabrotica balteata). Kind of assay: Diabrotica balteata spray test. The following applies: 168 h, after 7 days, wheat seeds, read-out: efficacy (seedlings grown up); for pest or weed control at 32 µg/disc, 100 g/ha: 100 g/ha (=32 μg/well). The method in brief:
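Efficacy (%) read at day 7: 100% means seedlings grew like untreated, uninfested controls; 0% means no seedlings grew. Wheat seeds germinated 1 day on agar, sprayed with emulsified compound solution (1000 ppm emulsifier in water), then each well infested with 10-20 larvae.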

In assay [5] the test system is green peach aphid (Myzus persicae). Kind of assay: Myzus persicae spray test. To be noted: foliar, 120 h, 100 g/ha, after 5 days, Chinese cabbage leaf disks. The method in brief:
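Chinese cabbage leaf disks carrying all instars of Myzus persicae were sprayed with compound. The formulation was acetone/dimethylformamide diluted in water with 1000 ppm alkylarylpolyglycol ether emulsifier. Percent mortality was scored after 5 days, with 100% meaning all aphids killed.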

In assay [6] the test system is brown planthopper (Nilaparvata lugens). Kind of assay: Nilaparvata lugens spray test. The following applies: in Oryza sativa, 96 h. In short, it runs like this:
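Rice plants (Oryza sativa) sprayed with compound in acetone/DMF diluted in water containing 1000 ppm alkylarylpolyglycol ether emulsifier, then infested with planthoppers. Mortality % scored after 4 days (100% = all killed, 0% = none killed).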

Assay [7] deals with fall armyworm larvae (Spodoptera frugiperda). The assay is described as follows: Spodoptera frugiperda spray test (maize leaf sections). The following applies: 168 h. In short, it runs like this: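 Percent kill of Spodoptera frugiperda larvae was recorded 7 days after infesting dried, treated maize leaf sections. Spray solutions were made from an acetone/DMF compound preparation diluted with 1000 ppm emulsifier-containing water.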

Assay [8] deals with Aedes aegypti strain MONHEIM. Kind of assay: Aedes aegypti test (AEDSAE surface treatment & contact assay). The following applies: 24 hours after contact, read-out: efficacy (mortality). The procedure:
(§1) Solvent: Aceton+2000 ppm rapeseed oil methyl ester (RME)
In order to produce a sufficient, active ingredient containing solution it is necessary to solve the test compound in the solvent-mix (acetone at 2 mg/ml/RME 2000 ppm). This solution is pipetted onto a glazed tile and after evaporation of the acetone, adult mosquitoes of the species Aedes aegypti strain MONHEIM are placed onto the dried surface. The exposure time is 30 minutes. Mortality in percent (%) is determined 24 hours after contact of the insects to the treated surface. 100% mortality means that all tested insects are dead, whereas 0% means that no insect died.

For assay [9], the system named is Anopheles funestus strain FUMOZ-R. The assay is described as follows: Anopheles funestus test (ANPHFU surface treatment & contact assay). The following applies: surface concentration 20 mg/m^2, 30 minutes exposure, 24 hours after contact, read-out: efficacy (mortality). As to the method:
as §1
In order to produce a sufficient, active ingredient containing solution it is necessary to solve the test compound in the solvent-mix (acetone at 2 mg/ml/RME 2000 ppm). This solution is pipetted onto a glazed tile and after evaporation of the acetone, adult mosquitoes of the species Anopheles funestus strain FUMOZ-R (Hunt et al., Med. Vet. Entomol. 2005 September; 19(3): 271-275) are placed onto the dried surface. The exposure time is 30 minutes.
(§2) Mortality in percent (%) is determined 24 hours after contact of the insects to the treated surface. 100% mortality means that all tested insects are dead, whereas 0% means that no insect died.

The test system of assay [10] is Musca domestica strain WHO-N. The assay is described as follows: Musca domestica test (MUSCDO surface treatment & contact assay). The following applies: 24 hours after contact, read-out: efficacy (mortality). The procedure:
as §1
In order to produce a sufficient, active ingredient containing solution it is necessary to solve the test compound in the solvent-mix (acetone at 2 mg/ml/RME 2000 ppm). This solution is pipetted onto a glazed tile and after evaporation of the acetone, adult flies of the species Musca domestica strain WHO-N are placed onto the dried surface. The exposure time is 30 minutes. Mortality in percent (%) is determined 24 hours after contact of the insects to the treated surface. 100% mortality means that all tested insects are dead, whereas 0% means that no insect died.

Assay [11] has as its system Blattella germanica strain PAULINIA
Kind of assay: Blattella germanica test (BLTTGE surface treatment & contact assay). The following applies: 24 hours after contact, read-out: efficacy (mortality). As to the method:
as §1
In order to produce a sufficient, active ingredient containing solution it is necessary to solve the test compound in the solvent-mix (acetone at 2 mg/ml/RME 2000 ppm). This solution is pipetted onto a glazed tile and after evaporation of the acetone, adult animals of the species Blattella germanica strain PAULINIA are placed onto the dried surface. The exposure time is 30 minutes.
as §2

Assay [12] concerns southern root-knot nematode (Meloidogyne incognita). The assay is described as follows: Meloidogyne incognita test. The following applies: 336 h, after 14 days, read-out: nematicidal activity (gall formation). As to the method: Solvent: 125.0 parts by weight of acetone
To produce a suitable preparation of active compound, 1 part by weight of active compound is mixed with the stated amount of solvent, and the concentrate is diluted with water to the desired concentration.
Vessels are filled with sand, a solution of the active ingredient, a suspension containing eggs and larvae of the southern root-knot nematode (Meloidogyne incognita) and salad seeds. The salad seeds germinate and the seedlings grow. Galls develop in the roots.
After 14 days the nematicidal activity is determined on the basis of the percentage of gall formation. 100% means no galls were found and 0% means the number of galls found on the roots of the treated plants was equal to that in untreated control plants.

For assay [13], the system named is green peach aphid (Myzus persicae). The assay is described as follows: Myzus persicae oral test. To be noted: 120 h. The method in brief:
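Five-day oral feeding assay measuring percent mortality of a mixed aphid population that draws compound-containing sugared IPL41 medium through sealing parafilm; the test preparation derives from 1 part compound per 100 parts acetone, diluted with water.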

Assay [14] relates to larvae of the southern green stink bug (Nezara viridula). Kind of assay: Nezara viridula spray test. To be noted: in Hordeum vulgare, 96 h. The method in brief: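 Percent mortality of southern green stink bug larvae read 4 days after spraying infested Hordeum vulgare. Test solutions: compound in acetone plus dimethylformamide, diluted with emulsifier-containing water (1000 ppm alkylarylpolyglycol ether).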

Assay [15] concerns two spotted spidermite (Tetranychus urticae). Kind of assay: Tetranychus urticae spray test, OP-resistant. To be noted: foliar, 144 h, after 6 days, French bean leaf disks. The procedure: Solvent: 78.0 parts by weight acetone • 1.5 parts by weight dimethylformamide
Emulsifier: alkylarylpolyglycol ether
To produce a suitable preparation of active compound, 1 part by weight of active compound is mixed with the stated amount of solvents and is diluted with water, containing an emulsifier concentration of 1000 ppm, to the desired concentration. Further test concentrations are prepared by dilution with emulsifier containing water.
French bean (Phaseolus vulgaris) leaf disks infected with all instars of the two spotted spidermite (Tetranychus urticae), are sprayed with a preparation of the active ingredient of the desired concentration.
After 6 days mortality in % is determined. 100% means all spider mites have been killed and 0% means none of the spider mites have been killed.

Where [16] appears, read: surface concentration 4 mg/m^2, 30 minutes exposure.
Setting [17] is: surface concentration 20 mg/m^2, 30 minutes exposure.

For `C[C@H](NC(=O)c1cc(OC(F)(F)F)cc(C2CC2)c1)c1nc(N(C)C)nn1-c1ncccn1` [I-138], the pest or weed control at 5 µg/cm2 in assay [1] and in assay [2] was 100% throughout. The pest or weed control at 1 µg/cm2, 100 g/ha in assay [3] (1 μg/cm^2 (=100 g/ha)) was 100%. Moreover, the pest or weed control at 5 µg/cm2, 500 g/ha in [3] (5 μg/cm^2 (=500 g/ha)) amounted to 100%. The pest or weed control at 32 µg/disc, 100 g/ha in [4] was found to be 100%. Moreover, the mortality at 100 g/ha in assay [5] amounted to 90%; in [7], 100%. Besides, in assay [6], the mortality at 500 g/ha was determined as 100%. Besides, the mortality at 4 mg/m2 in assay [8] (setting [16]), in assay [10] (setting [16]) and in assay [11] (setting [16]) was 90 to 100% each time. The mortality at 20 mg/m2 in assay [8] (setting [17]), in [9], in assay [10] (setting [17]) and in assay [11] (setting [17]) was 90 to 100% each time.
Turning to `CC(NC(=O)c1cc(Cl)cc(C(F)(F)F)c1)c1nc([S+](C)[O-])nn1-c1ccc(Cl)cn1` (stereo not drawn) [I-064], the pest or weed control at 32 µg/disc, 100 g/ha in [4] is 100%. The pest or weed control at 160 µg/disc, 500 g/ha in assay [4] (500 g/ha (=160 μg/well)) was 100%. The pest or weed control at 20 ppm in assay [12] came out at 90%. In addition, the mortality at 4 ppm in assay [13] was 100%. Moreover, the mortality at 100 g/ha in assay [14] and in [7] was 100% throughout. Also, the mortality at 500 g/ha in assay [14], in assay [7] and in [15] was 100% each time.

In general, mortality refers to the percentage killed.

For the origin of these results see US20230028441A1, “NOVEL HETEROARYL-TRIAZOLE COMPOUNDS AS PESTICIDES” (Bayer Aktiengesellschaft, priority 2019, published 2023).
